The record followed here is patent US9145375B2, “Quinazolinone compounds” (PRANA BIOTECHNOLOGY LIMITED, priority 2008, dated 2015).

Where “and” joins values, the source holds several entries; their conditions need not be identical. Identical values can stand only once.

One assay concerns the target T1, CYP1A2 (Homo sapiens, UniProt P05177).
T1 construct: using a specific substrate approach in human liver microsomes; from tissue; host or cells: human liver microsomes
T1 sequence (P05177 1-516): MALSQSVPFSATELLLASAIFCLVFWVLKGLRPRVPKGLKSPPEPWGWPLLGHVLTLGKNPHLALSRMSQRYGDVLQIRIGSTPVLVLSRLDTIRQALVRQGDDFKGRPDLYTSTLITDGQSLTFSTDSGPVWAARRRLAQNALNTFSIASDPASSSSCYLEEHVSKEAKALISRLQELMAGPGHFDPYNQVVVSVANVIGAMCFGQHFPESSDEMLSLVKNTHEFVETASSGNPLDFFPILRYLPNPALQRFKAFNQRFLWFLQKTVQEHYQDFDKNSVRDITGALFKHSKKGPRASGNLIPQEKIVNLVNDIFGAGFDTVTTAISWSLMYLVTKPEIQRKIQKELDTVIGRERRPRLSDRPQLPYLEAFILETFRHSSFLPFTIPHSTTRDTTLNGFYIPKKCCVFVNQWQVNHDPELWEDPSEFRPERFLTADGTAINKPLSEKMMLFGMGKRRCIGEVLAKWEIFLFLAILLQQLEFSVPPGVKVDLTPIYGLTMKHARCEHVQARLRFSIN
The assay is described as follows: CYP450 inhibition, specific substrate approach in human liver microsomes: CYP1A2. Type of assay: in vitro ADME. As for the experimental part:
CYP450 Isoform Inhibition Using a Specific Substrate Approach
The present study is a “Tier 2” screen to assess potential enzyme inhibition at a test compound concentration of 20 μM using a specific substrate approach in human liver microsomes.
The substrate specific enzyme inhibition study relies on the formation of a metabolite that is mediated by a specific CYP450 isoform using human liver microsomes. In the current study, the following reactions were monitored to assess interactions with specific CYP450 isoforms. A known inhibitor of each isoform was included in each assay as a positive control. The following IC50 values have been reported in the literature using equivalent assay conditions for each CYP450 isoform:
The reaction was initiated by the addition of an NADPH-regenerating system and was quenched by the addition of acetonitrile prior to determining the concentration (and apparent rate of formation) of the specific metabolite by LC/MS.
The IC50 was deemed to be the concentration at which there was a 50% reduction in the amount of metabolite formed, relative to the maximal extent of formation.
(In general: Microsomes from liver hold many membrane-bound enzymes, among them those of drug oxidation.)

The test system of assay [1] is MPTP induced cell death in the SN. The assay is described as follows: Parkinson's disease in vivo: MPTP model. The arrangement: species or system mouse. The conditions noted are these: MPTP mice; for SN cell counts % of SSV / SN cell counts (cells +/− SD): test drug 30 mg/kg daily by oral gavage, several experiments; for Behaviour Pole Test, % (SSV = 0%) / Behaviour Pole Test, value ± SD: 30 mg/kg. The text has this: Parkinson's Disease In Vivo Technique: MPTP
MPTP (1-methyl 4-phenyl 1,2,3,6-tetrahydropyridine) is a chemical that is related to the opioid analgesic drugs. MPTP causes Parkinsonian side-effects. This occurs when MPTP is metabolized into MPP+, which kills neurons in a part of the brain called the substantia nigra. MPP+ interferes with mitochondria metabolism which leads to cell death and causes the build up of free radicals, toxic molecules that contribute further to cell destruction. MPTP has abilities to effect neuronal death in dopaminergic cells. Such effects lead to gross depletion of dopaminergic neurons which has severe implications on cortical control of complex movements.
General Experimental Design
Determining that MPTP Causes Continued Cell Death
Control (non tg) and transgenic mice receive five intraperitoneal injections of MPTP-HCl (23 gauge needle, 20 mg\kg of free base; Sigma, St. Louis, Mo., USA) dissolved in sterile 0.9% saline at 2-h interval in 1 day. Control animals receive five intraperitoneal injections of 0.9% saline. […] 20 C57BL6, 10 control and 10 hA53T tg are used to establish the precise dose of toxin at 2 weeks. Animals are allowed to recover for 1 week, 2 weeks, 1 month, 12, months and 18 months. The animals are killed and the brains removed for histological (stereological) and biochemical analysis.
Determining Whether Test Drug Reduces MPTP Induced Cell Death
Animals are treated as described above. They are treated with test drug 2 days after MPTP injection until death. Test drug is given by oral gavage at a daily dosage of 30 mg/kg. The time of killing the animals is dependant on the analysis of Experiment 1, normally one month or less.
Drugs are administered by oral gavage, at a daily dosage of 30 mg/kg.
Mice are assessed at prior to killing the mice for histological analysis.
Motor coordination and strength are assessed using the rotarod. The rotarod consists of a plastic rotating rod of 3.6 cm axial diameter partitioned by metal disks into five sections to allow the testing of multiple mice simultaneously. Mice are trained on two sessions where the rotation speed is ramped from 0-30 rpm over 5 min and one training session where rotation is a constant 16 rpm for 5 min. Within two days of training, animals are formally assessed on the rotarod rotating at 16 rpm for a maximum of 3 min: the time to fall on this single test is the recorded data point.
The pole is a 700 mm long, 5 mm diameter, wooden rod. The rod is supported at its base and held vertical. The total walking distance for the mice is 550 mm. The time taken for the mouse to descend the pole is measured with a maximum time of 120 s. If a mouse falls, the time is scored as 120 s.

`CN(C)Cc1nc2c(O)c(Cl)cc(Cl)c2c(=O)n1C` [Compound F4269, 5,7-Dichloro-2-(dimethylamino)methyl-8-hydroxy-3-methylquinazolin-4(3H)-one]: it took 24.1 µM to reach half-maximal inhibition at CYP1A2 (IC50). Besides, in assay [1], the “SN cell counts % of SSV” value is recorded as 26.76% and the “SN cell counts (cells +/− SD)” value is listed as 3557.33 ± 556.55 cells.

As to `Br.CCn1c(CNC)nc2c(O)c(Cl)cc(Cl)c2c1=O` [Compound F4486], in assay [1], the “Behaviour Pole Test, % (SSV = 0%)” value came out at 38.46%; the “Behaviour Pole Test, value ± SD” value was “(1.81 ± 0.80)”; the “SN cell counts % of SSV” value stood at 24.11%; the “SN cell counts (cells +/− SD)” value came to 2647.97 ± 814.44 cells.

Consider `CNCc1nc2c(O)c(Cl)cc(Cl)c2c(=O)n1C` [Compound F4161], for which, in assay [1], the “Behaviour Pole Test, % (SSV = 0%)” value was 2.55%; the “Behaviour Pole Test, value ± SD” value is given as “(2.85 ± 1.63)”; the “SN cell counts % of SSV” value is 28.05%; the “SN cell counts (cells +/− SD)” value is given as “(2781.33 ± 382.88) cells”.

For the molecule `CCNCc1nc2c(O)c(Cl)cc(Cl)c2c(=O)n1CC` [Compound F4495], the IC50 (in general, the concentration that inhibits the measured activity by half) against CYP1A2 is 13.7 µM. In assay [1], the “Behaviour Pole Test, % (SSV = 0%)” value is recorded as 18.32%; the “Behaviour Pole Test, value ± SD” value is recorded as “(2.26 ± 0.82)”; the “SN cell counts % of SSV” value was 45.45% and 50.33%.

Regarding `Br.CCNCc1nc2c(O)c(Cl)cc(Cl)c2c(=O)n1C` [Compound F4496], the IC50 against CYP1A2 amounted to 22 µM. Also, in assay [1], the “Behaviour Pole Test, % (SSV = 0%)” value stood at 38.61% and the “Behaviour Pole Test, value ± SD” value is given as “(1.79 ± 1.13)”.

Take `CCn1c(CN(C)C)nc2c(O)c(Cl)cc(Cl)c2c1=O.Cl` [Compound F4268]: the IC50 against CYP1A2 is around 20 µM. In assay [1], the “Behaviour Pole Test, % (SSV = 0%)” value is −25.38%; the “Behaviour Pole Test, value ± SD” value is listed as “(3.66 ± 1.87)”; the “SN cell counts % of SSV” value is 40.35% and 74.83% and 64.00%; the “SN cell counts (cells +/− SD)” value is 3797.33 ± 562.78 cells and 3065 ± 387 cells and 3163.87 ± 611.27 cells.

`CCN(CC)Cc1nc2c(O)c(Cl)cc(Cl)c2c(=O)n1CC1CC1` [Compound F4385] yielded a half-maximal inhibitory concentration (IC50) on CYP1A2 of 13.4 µM. Moreover, in assay [1], the “SN cell counts % of SSV” value is 31.49% and the “SN cell counts (cells +/− SD)” value is listed as 3690.00 ± 919.10 cells.

As to `CN(C)Cc1nc2c(O)c(Cl)cc(Cl)c2c(=O)n1CC1CC1` [Compound F4267], the IC50 against CYP1A2 was determined as 15.3 µM. Besides, in assay [1], the “SN cell counts % of SSV” value was 53.94% and 53.77%; the “SN cell counts (cells +/− SD)” value is 3331.96 ± 262.97 cells and 4315.11 ± 310.21 cells.
